# Source: ChEMBL document CHEMBL4402543, “Bioisosteric Development of Multitarget Nonsteroidal Anti-Inflammatory Drug-Carbonic Anhydrases Inhibitor Hybrids for the Management of Rheumatoid Arthritis” (J Med Chem, 2020)
# The source made the active and inactive calls.
# Experiments:
# [1] = target: COX1 (Prostaglandin G/H synthase 1) (Homo sapiens, UniProt P23219); assay: Inhibition of COX1 in human platelet rich plasma in assessed as inhibition of ADP-induced platelet aggregation at 10 uM incubated for 5 mins by turbidimetry based Born's method relative to control
# COX1 (Prostaglandin G/H synthase 1), sequence (P23219 whole entry): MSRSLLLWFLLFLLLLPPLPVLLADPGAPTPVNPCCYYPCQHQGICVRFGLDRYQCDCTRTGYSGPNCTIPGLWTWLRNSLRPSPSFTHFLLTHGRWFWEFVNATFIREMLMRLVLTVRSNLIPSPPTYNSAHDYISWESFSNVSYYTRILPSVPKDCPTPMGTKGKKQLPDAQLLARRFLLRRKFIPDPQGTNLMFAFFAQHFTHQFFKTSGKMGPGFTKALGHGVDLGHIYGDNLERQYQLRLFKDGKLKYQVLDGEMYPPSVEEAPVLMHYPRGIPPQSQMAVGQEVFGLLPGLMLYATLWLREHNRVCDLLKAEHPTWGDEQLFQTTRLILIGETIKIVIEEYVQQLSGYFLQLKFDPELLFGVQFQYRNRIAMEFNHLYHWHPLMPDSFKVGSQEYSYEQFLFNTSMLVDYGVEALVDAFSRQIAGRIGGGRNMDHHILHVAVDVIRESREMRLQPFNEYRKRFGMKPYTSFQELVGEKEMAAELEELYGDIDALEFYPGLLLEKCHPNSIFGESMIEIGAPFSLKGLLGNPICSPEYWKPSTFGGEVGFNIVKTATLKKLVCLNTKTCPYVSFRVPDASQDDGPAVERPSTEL
# [2] = Half life in human plasma by LC-MS/MS analysis; type: ADME, cell-free
# [3] = Half life in Sprague-Dawley rat plasma by LC-MS/MS analysis; type: ADME, cell-free
# [4] = target: T1, Prostaglandin G/H synthase 2 (Mus musculus) (UniProt Q05769); assay: Inhibition of COX2 in mouse RAW264.7 cells assessed as reduction in LPS-induced inflammation by measuring reduction in PGE2 level at 100 uM treated 1 hr after LPS stimulation and measured after 18 hrs by ELISA relative to control; type: cell-based
# T1 sequence (whole entry): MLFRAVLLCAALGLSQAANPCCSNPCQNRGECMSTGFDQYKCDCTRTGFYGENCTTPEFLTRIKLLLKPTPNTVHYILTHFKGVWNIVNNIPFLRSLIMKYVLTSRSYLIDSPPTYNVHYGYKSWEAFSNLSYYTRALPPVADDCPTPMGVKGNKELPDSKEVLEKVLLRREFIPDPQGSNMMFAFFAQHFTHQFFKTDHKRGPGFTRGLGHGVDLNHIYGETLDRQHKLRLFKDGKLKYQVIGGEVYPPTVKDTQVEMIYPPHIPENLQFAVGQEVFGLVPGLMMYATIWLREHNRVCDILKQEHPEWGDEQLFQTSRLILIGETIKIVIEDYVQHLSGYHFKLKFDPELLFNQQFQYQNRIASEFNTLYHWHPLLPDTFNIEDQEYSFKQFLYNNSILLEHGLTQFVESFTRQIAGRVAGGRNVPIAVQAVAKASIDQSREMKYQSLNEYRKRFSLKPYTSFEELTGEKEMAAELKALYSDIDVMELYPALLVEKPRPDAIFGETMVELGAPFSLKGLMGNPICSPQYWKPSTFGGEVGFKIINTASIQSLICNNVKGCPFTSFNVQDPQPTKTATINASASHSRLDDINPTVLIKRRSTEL
# [5] = Stability in PBS; type: physicochemical; details: buffer
# [6] = system: Rattus norvegicus; assay: Antihyperalgesic activity in Sprague-Dawley rat model of Complete freund's adjuvant-induced arthritis assessed as increase in pain threshold of ipsilateral paw at 10 mg/kg, po starting from day 14 after CFA injection and measured at 0 to 60 mins by paw pressure test; type: functional, organism-based
# [7] = target: T1, Prostaglandin G/H synthase 2 (Mus musculus); assay: Inhibition of COX2 in mouse RAW264.7 cells assessed as reduction in LPS-induced inflammation by measuring reduction in PGE2 level at 1 uM treated 1 hr after LPS stimulation and measured after 18 hrs by ELISA relative to control; type: cell-based
# [8] = system: Rattus norvegicus; assay: (§1) Antihyperalgesic activity in Sprague-Dawley rat model of Complete freund's adjuvant-induced arthritis assessed as reduction in difference between weight burdened on contralateral and ipsilateral paw at 30 mg/kg, po starting from day 14 after CFA injection and measured at 15 mins incapacitance test; type: functional, organism-based
# [9] = system: Rattus norvegicus; assay: as §1, with “15 to 30” for “15”; type: functional, organism-based
# [10] = system: Rattus norvegicus; assay: Antihyperalgesic activity in Sprague-Dawley rat model of Complete freund's adjuvant-induced arthritis assessed as reduction in difference between weight burdened on contralateral and ipsilateral paw at 30 mg/kg, po starting from day 14 after CFA injection and measured at 45 mins incapacitance test; type: functional, organism-based
# [11] = system: Rattus norvegicus; assay: Antihyperalgesic activity in Sprague-Dawley rat model of Complete freund's adjuvant-induced arthritis assessed as reduction in difference between weight burdened on contralateral and ipsilateral paw at 30 mg/kg, po starting from day 14 after CFA injection and measured at 30 mins incapacitance test; type: functional, organism-based
# [12] = system: Rattus norvegicus; assay: Antihyperalgesic activity in Sprague-Dawley rat model of Complete freund's adjuvant-induced arthritis assessed as increase in pain threshold of ipsilateral paw at 30 mg/kg, po starting from day 14 after CFA injection and measured at 15 to 30 mins by paw pressure test; type: functional, organism-based
# [13] = system: Rattus norvegicus; assay: Antihyperalgesic activity in Sprague-Dawley rat model of Complete freund's adjuvant-induced arthritis assessed as increase in pain threshold of ipsilateral paw at 100 mg/kg, po starting from day 14 after CFA injection and measured at 15 mins by paw pressure test; type: functional, organism-based
# [14] = target: Carbonic anhydrase 2 (Homo sapiens) (UniProt P00918)
# Description: Inhibition of human CA2 pre-incubated for 6 hrs by stopped- flow CO2 hydrase assay method based Cheng-Prusoff equation analysis
# [15] = target: Carbonic anhydrase 4 (Homo sapiens) (UniProt P22748)
# Carbonic anhydrase 4 (Homo sapiens), sequence (P22748 whole entry): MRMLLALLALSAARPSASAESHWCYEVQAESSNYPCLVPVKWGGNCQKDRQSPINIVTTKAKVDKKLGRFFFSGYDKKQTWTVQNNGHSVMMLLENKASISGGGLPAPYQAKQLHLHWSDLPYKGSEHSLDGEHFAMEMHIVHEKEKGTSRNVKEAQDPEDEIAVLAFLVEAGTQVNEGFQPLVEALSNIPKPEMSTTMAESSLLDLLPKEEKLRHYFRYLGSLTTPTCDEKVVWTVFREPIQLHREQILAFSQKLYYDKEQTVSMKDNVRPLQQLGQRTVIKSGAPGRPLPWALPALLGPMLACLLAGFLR
# Description: Inhibition of human CA4 pre-incubated for 6 hrs by stopped- flow CO2 hydrase assay method based Cheng-Prusoff equation analysis
# [16] = target: Carbonic anhydrase 1 (Homo sapiens) (UniProt P00915)
# Carbonic anhydrase 1 (Homo sapiens), sequence (P00915 2-261 limits assumed): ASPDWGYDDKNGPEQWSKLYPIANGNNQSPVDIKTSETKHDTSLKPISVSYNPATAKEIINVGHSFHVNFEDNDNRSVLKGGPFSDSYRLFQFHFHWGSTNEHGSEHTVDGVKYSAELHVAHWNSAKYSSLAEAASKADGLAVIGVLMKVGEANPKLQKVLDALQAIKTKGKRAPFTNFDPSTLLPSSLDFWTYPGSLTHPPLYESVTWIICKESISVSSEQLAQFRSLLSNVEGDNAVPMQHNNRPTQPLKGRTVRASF
# Description: Inhibition of human CA1 pre-incubated for 6 hrs by stopped- flow CO2 hydrase assay method based Cheng-Prusoff equation analysis
# [17] = target: Carbonic anhydrase 9 (Homo sapiens) (UniProt Q16790)
# Description: Inhibition of human CA9 pre-incubated for 6 hrs by stopped- flow CO2 hydrase assay method based Cheng-Prusoff equation analysis
# [18] = target: Carbonic anhydrase 7 (Homo sapiens) (UniProt P43166)
# Carbonic anhydrase 7 (Homo sapiens), sequence (P43166 whole entry): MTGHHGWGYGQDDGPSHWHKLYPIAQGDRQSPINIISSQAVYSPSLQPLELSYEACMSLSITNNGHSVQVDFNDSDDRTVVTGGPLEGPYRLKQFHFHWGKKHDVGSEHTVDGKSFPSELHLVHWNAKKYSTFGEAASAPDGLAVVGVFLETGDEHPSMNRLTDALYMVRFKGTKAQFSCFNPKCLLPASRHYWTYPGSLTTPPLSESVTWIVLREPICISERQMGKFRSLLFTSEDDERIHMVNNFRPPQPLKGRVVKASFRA
# Description: Inhibition of human CA7 pre-incubated for 6 hrs by stopped- flow CO2 hydrase assay method based Cheng-Prusoff equation analysis
# [19] = target: Carbonic anhydrase 12 (Homo sapiens) (UniProt O43570)
# Carbonic anhydrase 12 (Homo sapiens), sequence (O43570 whole entry): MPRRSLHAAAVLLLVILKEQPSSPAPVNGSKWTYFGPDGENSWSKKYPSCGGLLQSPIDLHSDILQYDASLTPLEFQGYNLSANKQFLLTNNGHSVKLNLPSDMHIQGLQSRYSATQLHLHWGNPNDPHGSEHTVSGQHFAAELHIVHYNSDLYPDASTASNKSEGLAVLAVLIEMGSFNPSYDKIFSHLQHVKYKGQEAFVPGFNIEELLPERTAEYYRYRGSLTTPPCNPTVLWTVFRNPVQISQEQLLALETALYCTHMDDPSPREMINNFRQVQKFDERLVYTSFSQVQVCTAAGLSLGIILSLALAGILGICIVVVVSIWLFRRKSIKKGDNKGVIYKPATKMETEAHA
# Description: Inhibition of human CA12 pre-incubated for 6 hrs by stopped- flow CO2 hydrase assay method based Cheng-Prusoff equation analysis
SMILES,"inhibition at 5 min, 10 µM [1] [%]",half-life [2] [min],half-life [3] [min],Stability [5],also measured
O=C(Cc1ccccc1Nc1c(Cl)cccc1Cl)NCCOc1ccc2oc(=O)ccc2c1,5 to 30,> 240,> 240,,inhibition [4]: 75%
CC(C(=O)NCCOc1ccc2ccc(=O)oc2c1)c1ccc(-c2ccccc2)c(F)c1 (stereo not given),,> 240,> 240,,
CC(C(=O)NCCOc1ccc2ccc(=O)oc2c1)c1cccc(C(=O)c2ccccc2)c1 (stereo not given),,> 240,> 240,,
CC(C)Cc1ccc(C(C)C(=O)NCCOc2ccc3ccc(=O)oc3c2)cc1 (stereo not given),5 to 30,> 240,> 240,,Activity [6]: Active; inhibition [7]: Active; inhibition [4]: Active
O=C(O)Cc1ccccc1Nc1c(Cl)cccc1Cl [DICLOFENAC],15,,,,
CC(C)Cc1ccc(C(C)C(=O)NCCOc2ccc3oc(=O)ccc3c2)cc1 (stereo not given),5 to 30,> 240,> 240,,
CC(C(=O)O)c1cccc(C(=O)c2ccccc2)c1 (stereo not given) [KETOPROFEN],25,,,,Activity [8]: Active; Activity [9]: Active; Activity [10]: inactive; Activity [11]: inactive; Activity [12]: Active
CC(C(=O)OCCOc1ccc2ccc(=O)oc2c1)c1ccc(-c2ccccc2)c(F)c1 (racemic),,> 240,2.4,Stable,
CC1=C(CC(=O)NCCOc2ccc3ccc(=O)oc3c2)c2cc(F)ccc2/C1=C\c1ccc([S+](C)[O-])cc1 (stereo not given),,> 240,> 240,,
CC(C)Cc1ccc(C(C)C(=O)O)cc1 (stereo not given) [IBUPROFEN],> 60,,,,Activity [13]: Active
CC(C(=O)NCCOc1ccc2oc(=O)ccc2c1)c1cccc(C(=O)c2ccccc2)c1 (stereo not given),,> 240,> 240,,
CC(C(=O)NCCOc1ccc2oc(=O)ccc2c1)c1ccc(-c2ccccc2)c(F)c1 (stereo not given),,> 240,> 240,,
CC(C)Cc1ccc(C(C)C(=O)OCCOc2ccc3oc(=O)ccc3c2)cc1 (racemic),5 to 30,> 240,3.5,Stable,Ki [14]: > 10 µM; Ki [15]: 3.6 nM; Ki [16]: > 10 µM; Ki [17]: 25.3 nM; Ki [18]: > 10 µM; Ki [19]: 459 nM
O=C(Cc1ccccc1Nc1c(Cl)cccc1Cl)NCCOc1ccc2ccc(=O)oc2c1,> 15,> 240,> 240,,
CC(C)Cc1ccc(C(C)C(=O)OCCOc2ccc3ccc(=O)oc3c2)cc1 (racemic),5 to 30,> 240,3.2,Stable,Ki [14]: > 10 µM; Ki [15]: 6.5 nM; Ki [16]: > 10 µM; Ki [17]: 3.9 nM; Ki [18]: > 10 µM; Ki [19]: 5.3 nM

# Now from value to compound, other results behind:
"inhibition at 5 min, 10 µM [1] [%]",half-life [2] [min],half-life [3] [min],Stability [5],SMILES,also measured
,32,< 1,Stable,O=C(Cc1ccccc1Nc1c(Cl)cccc1Cl)OCCOc1ccc2oc(=O)ccc2c1,
,> 240,> 240,,COc1ccc2cc([C@H](C)C(=O)NCCOc3ccc4oc(=O)ccc4c3)ccc2c1,
,> 240,< 1,Stable,COc1ccc2cc([C@H](C)C(=O)OCCOc3ccc4ccc(=O)oc4c3)ccc2c1,
,> 240,1.1,Stable,COc1ccc2cc([C@H](C)C(=O)OCCOc3ccc4oc(=O)ccc4c3)ccc2c1,
,> 240,> 240,,COc1ccc2cc([C@H](C)C(=O)NCCOc3ccc4ccc(=O)oc4c3)ccc2c1,
,> 240,2.8,Stable,COc1ccc2c(c1)c(CC(=O)OCCOc1ccc3oc(=O)ccc3c1)c(C)n2C(=O)c1ccc(Cl)cc1,
,> 240,> 240,,CC1=C(CC(=O)NCCOc2ccc3oc(=O)ccc3c2)c2cc(F)ccc2/C1=C\c1ccc([S+](C)[O-])cc1 (stereo not given),
,> 240,5.5,Stable,CC1=C(CC(=O)OCCOc2ccc3oc(=O)ccc3c2)c2cc(F)ccc2/C1=C\c1ccc([S+](C)[O-])cc1 (stereo not given),
,18,< 1,Stable,O=C(Cc1ccccc1Nc1c(Cl)cccc1Cl)OCCOc1ccc2ccc(=O)oc2c1,
,> 240,2,Stable,COc1ccc2c(c1)c(CC(=O)OCCOc1ccc3ccc(=O)oc3c1)c(C)n2C(=O)c1ccc(Cl)cc1,
,> 240,> 240,,COc1ccc2c(c1)c(CC(=O)NCCOc1ccc3oc(=O)ccc3c1)c(C)n2C(=O)c1ccc(Cl)cc1,
,> 240,> 240,,COc1ccc2c(c1)c(CC(=O)NCCOc1ccc3ccc(=O)oc3c1)c(C)n2C(=O)c1ccc(Cl)cc1,
,> 240,16.6,Stable,CC1=C(CC(=O)OCCOc2ccc3ccc(=O)oc3c2)c2cc(F)ccc2/C1=C\c1ccc([S+](C)[O-])cc1 (stereo not given),
,> 240,1.3,Stable,CC(C(=O)OCCOc1ccc2oc(=O)ccc2c1)c1ccc(-c2ccccc2)c(F)c1 (racemic),
